Experimental data taken from publication PMC8217266 (Clinical Pharmacology and Therapeutics, 2021).

How the values were obtained:
P-gp = P-gp (Homo sapiens, UniProt P08183); experiment: biochemical
human OAT1 = target: T1, human OAT1 (Homo sapiens, UniProt Q4U2R8); experiment: cell-based
T1 sequence (Q4U2R8 1-563): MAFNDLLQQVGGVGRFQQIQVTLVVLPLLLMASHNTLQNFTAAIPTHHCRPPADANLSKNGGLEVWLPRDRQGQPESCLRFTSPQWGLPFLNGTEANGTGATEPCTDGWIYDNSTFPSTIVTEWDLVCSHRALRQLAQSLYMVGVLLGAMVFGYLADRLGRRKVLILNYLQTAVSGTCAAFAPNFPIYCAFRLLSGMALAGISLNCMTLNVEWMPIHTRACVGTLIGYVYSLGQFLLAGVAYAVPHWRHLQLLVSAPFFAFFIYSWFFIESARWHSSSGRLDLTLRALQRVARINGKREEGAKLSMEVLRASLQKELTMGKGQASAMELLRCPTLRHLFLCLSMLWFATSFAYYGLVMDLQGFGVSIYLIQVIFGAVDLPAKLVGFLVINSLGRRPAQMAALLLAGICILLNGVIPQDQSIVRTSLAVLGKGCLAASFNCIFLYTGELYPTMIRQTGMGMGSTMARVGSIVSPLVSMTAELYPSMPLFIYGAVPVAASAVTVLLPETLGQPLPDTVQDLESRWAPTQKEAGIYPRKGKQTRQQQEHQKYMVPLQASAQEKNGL

[1] = test system: triglycerides, LDL cholesterol, and total cholesterol, biomarkers of OCT1 activity; experiment: UCSF EHR analysis: lipid levels in patients with HIV, on vs off drug; assay type: in vivo, human
human OATP1B3 = target: T2, human OATP1B3 (Homo sapiens, UniProt Q9NPD5)
T2 sequence (Q9NPD5 1-702): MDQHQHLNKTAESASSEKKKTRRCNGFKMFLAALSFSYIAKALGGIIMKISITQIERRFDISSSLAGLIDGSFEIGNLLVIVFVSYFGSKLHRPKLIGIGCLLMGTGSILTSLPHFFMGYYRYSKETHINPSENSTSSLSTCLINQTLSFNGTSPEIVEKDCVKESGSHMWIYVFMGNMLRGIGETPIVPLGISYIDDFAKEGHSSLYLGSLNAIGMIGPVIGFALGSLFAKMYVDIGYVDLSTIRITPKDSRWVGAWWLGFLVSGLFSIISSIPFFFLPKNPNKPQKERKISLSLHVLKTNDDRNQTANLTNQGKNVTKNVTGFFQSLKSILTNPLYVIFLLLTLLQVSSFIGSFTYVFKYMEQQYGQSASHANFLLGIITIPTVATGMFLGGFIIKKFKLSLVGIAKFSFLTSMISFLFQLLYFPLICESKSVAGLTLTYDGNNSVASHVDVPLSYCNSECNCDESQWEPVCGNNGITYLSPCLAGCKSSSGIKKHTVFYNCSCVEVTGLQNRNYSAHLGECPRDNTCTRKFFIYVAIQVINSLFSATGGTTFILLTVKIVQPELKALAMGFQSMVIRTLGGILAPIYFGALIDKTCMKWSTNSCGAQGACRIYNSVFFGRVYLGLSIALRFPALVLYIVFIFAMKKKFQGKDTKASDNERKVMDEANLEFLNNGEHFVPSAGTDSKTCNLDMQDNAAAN

human OCT2 = target: T3, human OCT2 (Homo sapiens, UniProt O15244)
T3 sequence (O15244 1-555): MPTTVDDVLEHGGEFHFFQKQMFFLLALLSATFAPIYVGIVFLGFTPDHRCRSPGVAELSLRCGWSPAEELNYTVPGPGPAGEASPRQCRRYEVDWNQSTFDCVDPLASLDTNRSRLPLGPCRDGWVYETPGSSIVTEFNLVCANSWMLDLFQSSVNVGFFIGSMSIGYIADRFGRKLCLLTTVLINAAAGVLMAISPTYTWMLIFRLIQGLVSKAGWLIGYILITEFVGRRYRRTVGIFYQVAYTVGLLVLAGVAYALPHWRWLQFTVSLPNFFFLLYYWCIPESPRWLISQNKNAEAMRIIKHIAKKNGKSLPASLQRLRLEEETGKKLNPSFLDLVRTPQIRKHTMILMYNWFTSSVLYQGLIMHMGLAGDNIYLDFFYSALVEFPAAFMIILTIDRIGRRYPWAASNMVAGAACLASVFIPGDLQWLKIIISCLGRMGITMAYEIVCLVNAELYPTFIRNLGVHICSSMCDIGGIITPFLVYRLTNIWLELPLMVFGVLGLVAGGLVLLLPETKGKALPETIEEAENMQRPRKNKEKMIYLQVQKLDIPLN

human OCT1 = target: T4, human OCT1 (Homo sapiens, UniProt O15245); settings: for Iu,in,max/IC50 OCT1: human
T4 sequence (O15245 1-554): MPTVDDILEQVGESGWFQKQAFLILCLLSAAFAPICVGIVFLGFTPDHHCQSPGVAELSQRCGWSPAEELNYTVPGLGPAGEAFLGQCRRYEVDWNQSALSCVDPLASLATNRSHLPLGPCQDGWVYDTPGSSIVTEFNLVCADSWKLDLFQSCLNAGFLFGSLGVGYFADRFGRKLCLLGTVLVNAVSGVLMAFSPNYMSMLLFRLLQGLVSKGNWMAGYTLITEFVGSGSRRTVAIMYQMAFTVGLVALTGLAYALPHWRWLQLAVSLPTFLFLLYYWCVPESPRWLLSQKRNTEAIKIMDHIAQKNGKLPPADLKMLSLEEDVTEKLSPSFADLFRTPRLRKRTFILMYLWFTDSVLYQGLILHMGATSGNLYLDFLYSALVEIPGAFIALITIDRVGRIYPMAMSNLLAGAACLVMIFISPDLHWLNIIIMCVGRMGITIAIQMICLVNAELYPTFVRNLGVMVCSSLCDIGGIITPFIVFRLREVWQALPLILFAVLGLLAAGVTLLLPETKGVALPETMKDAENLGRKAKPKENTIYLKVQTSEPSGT

human MATE2 = human MATE2 (Homo sapiens, UniProt Q86VL8)
Sequence of human MATE2 (Q86VL8 1-566 isoform Q86VL8-3): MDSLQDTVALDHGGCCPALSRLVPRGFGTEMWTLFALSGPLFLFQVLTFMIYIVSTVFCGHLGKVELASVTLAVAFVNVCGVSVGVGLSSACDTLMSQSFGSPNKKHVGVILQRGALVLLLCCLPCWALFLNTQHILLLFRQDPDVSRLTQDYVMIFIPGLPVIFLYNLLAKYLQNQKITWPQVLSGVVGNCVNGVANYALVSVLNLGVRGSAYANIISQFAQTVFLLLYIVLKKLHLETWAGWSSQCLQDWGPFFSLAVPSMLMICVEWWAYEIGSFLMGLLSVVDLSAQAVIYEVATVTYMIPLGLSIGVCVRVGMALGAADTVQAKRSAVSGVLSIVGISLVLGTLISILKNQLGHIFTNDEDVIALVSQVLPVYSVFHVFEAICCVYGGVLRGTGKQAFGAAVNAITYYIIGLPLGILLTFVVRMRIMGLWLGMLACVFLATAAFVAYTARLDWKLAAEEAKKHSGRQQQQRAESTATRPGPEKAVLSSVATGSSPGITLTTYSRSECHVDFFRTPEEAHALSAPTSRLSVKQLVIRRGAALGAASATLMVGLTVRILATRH

[2] = test system: uric acid, a biomarker of BCRP activity; experiment: UCSF EHR analysis: serum/plasma uric acid, on vs off drug; assay type: in vivo, human

Sequence of P-gp (P08183 whole entry): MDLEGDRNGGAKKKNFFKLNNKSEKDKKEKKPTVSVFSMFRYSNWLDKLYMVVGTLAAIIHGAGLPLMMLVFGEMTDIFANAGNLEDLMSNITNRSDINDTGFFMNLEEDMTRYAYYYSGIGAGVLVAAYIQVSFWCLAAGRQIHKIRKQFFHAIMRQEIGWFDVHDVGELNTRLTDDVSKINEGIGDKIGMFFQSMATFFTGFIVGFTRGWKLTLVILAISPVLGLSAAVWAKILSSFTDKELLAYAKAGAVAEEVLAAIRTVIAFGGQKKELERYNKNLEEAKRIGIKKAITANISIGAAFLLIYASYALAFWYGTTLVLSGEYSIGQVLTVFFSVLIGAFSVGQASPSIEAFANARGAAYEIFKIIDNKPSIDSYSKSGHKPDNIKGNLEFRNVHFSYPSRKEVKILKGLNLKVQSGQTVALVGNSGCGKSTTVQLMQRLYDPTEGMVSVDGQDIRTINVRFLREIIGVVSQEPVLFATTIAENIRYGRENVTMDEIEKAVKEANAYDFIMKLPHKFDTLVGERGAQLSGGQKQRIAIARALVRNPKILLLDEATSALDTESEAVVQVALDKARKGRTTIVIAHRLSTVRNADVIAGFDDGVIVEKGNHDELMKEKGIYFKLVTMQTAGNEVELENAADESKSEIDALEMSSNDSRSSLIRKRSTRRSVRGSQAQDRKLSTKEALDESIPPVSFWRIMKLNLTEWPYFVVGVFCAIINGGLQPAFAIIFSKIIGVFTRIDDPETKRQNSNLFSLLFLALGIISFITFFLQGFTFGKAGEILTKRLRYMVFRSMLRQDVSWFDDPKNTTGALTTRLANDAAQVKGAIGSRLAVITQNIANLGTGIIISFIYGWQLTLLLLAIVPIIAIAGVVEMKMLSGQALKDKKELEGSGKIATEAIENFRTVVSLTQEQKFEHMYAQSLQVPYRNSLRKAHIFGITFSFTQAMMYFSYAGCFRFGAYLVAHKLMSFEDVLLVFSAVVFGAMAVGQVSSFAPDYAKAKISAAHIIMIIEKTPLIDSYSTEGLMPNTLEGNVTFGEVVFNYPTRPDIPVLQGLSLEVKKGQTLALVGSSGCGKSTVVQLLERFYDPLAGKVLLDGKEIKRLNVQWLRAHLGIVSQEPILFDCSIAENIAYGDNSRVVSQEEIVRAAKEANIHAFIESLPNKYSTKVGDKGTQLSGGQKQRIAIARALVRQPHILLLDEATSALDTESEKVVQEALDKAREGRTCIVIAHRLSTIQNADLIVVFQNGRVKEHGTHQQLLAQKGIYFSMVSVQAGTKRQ

Structure (SMILES)	IC50 (P-gp) [µM]	IC50 (human OAT1) [µM]	LDL cholesterol, Median On drug ([1]; matched 1:2, off drug 95)	Total cholesterol, Median On drug ([1]; matched 1:2, off drug 166)	LDL cholesterol, Average On drug ([1]; matched 1:2, on n=357, off n=714, off drug 98.7, P 0.0077)	Total cholesterol, Average On drug ([1]; matched 1:2, on n=364, off n=728, off drug 170, P 5.18E-06)	Triglyceride, Average On drug ([1]; matched 1:2, on n=386, off n=772, off drug 160, P 0.00022)	Iu,in,max/IC50 OATP1B3 (human OATP1B3)	Cu,max/IC50 OCT2 (human OCT2)	Iu,in,max/IC50 OCT1 (human OCT1)	Cu,max/IC50 MATE2-K (human MATE2)	Median SUA On drug ([2]; criteria 1, off drug 5.7)	Median SUA On drug ([2]; criteria 2, off drug 5.6)	Median SUA On drug ([2]; main analysis, matched 1:5, off drug 5.7, P <2.2E-16)	OCT1 inhibited more potently relative to OCT2 (human OCT1) [fold]
CC(C)CN(C[C@@H](O)[C@H](Cc1ccccc1)NC(=O)O[C@H]1CO[C@H]2OCC[C@H]21)S(=O)(=O)c1ccc(N)cc1 [Darunavir]	16	95	100/95 mg/dL	180/166 mg/dL	105/98.7 mg/dL	183/170 mg/dL	180/160 mg/dL								
CCC(CC)COC(=O)[C@H](C)N[P@](=O)(OC[C@H]1O[C@@](C#N)(c2ccc3c(N)ncnn23)[C@H](O)[C@@H]1O)Oc1ccccc1 [Remdesivir]	14	> 100													
N#CC[C@H](C1CCCC1)n1cc(-c2ncnc3[nH]ccc23)cn1 [Ruxolitinib]	> 100	> 100						0.008	0.003	0.02					
CCCc1nn(C)c2c(=O)[nH]c(-c3cc(S(=O)(=O)N4CCN(C)CC4)ccc3OCC)nc12 [Sildenafil]	16	> 100									0.003	6.7/5.7 mg/dL	6.9/5.6 mg/dL	6.6/5.7 mg/dL	
CCOC(=O)c1c(CSc2ccccc2)n(C)c2cc(Br)c(O)c(CN(C)C)c12 [Umifenovir (Arbidol), Umifenovir]	16 ± 2	> 100						0.73	0.006	3.93	0.02				≥ 10
